“Also recorded” adds a separate entry of the source.
Tests used:
KBM7 cells = experiment: Cell survival assay, wild type (parental) KBM7 cells; type: cell-based, human; conditions: 50 μM, 3 days of treatment
Method: A haploid cell genetic screen with 3-BrPA was performed using 100 million mutagenized KBM7 cells as described previously^29. Mutagenized haploid KBM-7 cells were exposed to 50 μM 3-BrPA for 3 weeks. Surviving clones were harvested and genomic DNA was isolated and insertions were amplified. The sequences flanking retroviral insertion sites were mapped to the human genome using inverse PCR followed by Ilium in a sequencing. Genomic regions with a high density of insertions were identified using the proximity index for a given insertion. Additionally, the statistical enrichment of insertions at a given locus in the selected population was calculated by comparing the number of inactivating insertions to those in the untreated control dataset via a Fisher's Exact Test. Individual clones were isolated among 50 different clones and genomic DNA for individually selected clones were isolated using a genomic DNA isolation kit (Qiagen). Genomic insertions were identified by inverse PCR and subsequent sequencing as described previously^24.
Cell lines (5,000-20,000) were seeded in 96-well plates and treated with indicated amounts of 3-BrPA. After 3 days of treatment, CellTiter-Glo (Promega) and/or CyQuant (Invitrogen) were used to measure survival percentage for each concentration compared to untreated cells. […]

MDA-MB-453 cells = experiment: Cell survival assay, MDA-MB-453; type: cell-based, human; conditions: MDA-MB-453, low MCT1 level
Method: Cell lines (5,000-20,000) were seeded in 96-well plates and treated with indicated amounts of 3-BrPA. After 3 days of treatment, CellTiter-Glo (Promega) and/or CyQuant (Invitrogen) were used to measure survival percentage for each concentration compared to untreated cells. FACS analysis with Annexin V and 7AAD staining was performed according to manufacturer's manual (BD Pharmingen).
15 cell lines (BT-474, BT-549, CAK1-1, CAL-51, HCC-70, HS578T, JURKAT, MDA-MB-157, MDA-MB-231, MDA-MB-453, MDA-MB-468, PC-3, SK-BR-3, T47D, ZR-75-1) were treated with 3-BrPA (0-300 μM). After 3 days, cell viability was quantified via CellTiter-Glo assay and an IC50 from the resulting dose-response curve was interpolated using a nonlinear regression model. Transcriptome-wide normalized mRNA levels from gene expression profiling experiments performed on the Affymetrix Human Genome U133 Plus 2.0 chip were obtained from the CCLE for all 15 cell lines. The mRNA expression pattern across all 15 samples for each of the genes was then correlated with the IC50 values. Similar correlation analysis was performed using OCR/ECAR values for each cell line.

parental KBM7 cells = experiment: Extracellular flux analysis (ECAR), parental KBM7 cells; type: cell-based, human; conditions: 50 μM 3-BrPA
Method: The bioenergetic profiles of KBM7 and MDA-MB-231 cells in response to 3-BrPA were determined using a Seahorse Bioscience XF24 Extracellular Flux Analyzer (Seahorse Bioscience). For the indicated experiments, 250,000 KBM7 or 40,000 MDA-MB-231 cells seeded in Seahorse tissue culture plates using unbuffered RPMI (10 mM Glucose). KBM7 cells were attached to the plates using CellTak (Clontech) one hour prior to the start of the experiment. For AUC (area under the curve) OCR and ECAR measurements, three consecutive readings were performed for each cell line. For experiments where 3-BrPA is used, after 3 consecutive readings, 50 μM 3-BrPA was injected through port A and ECAR and OCAR levels were measured. Lactate production was measured as described previously^50. For ATP assays, 20,000 cells were seeded and treated for 30 min with indicated amounts of 3-BrPA and ATP levels were determined using a luciferase-based assay (Promega). For metabolite measurements, 10 million wild type and MCT1 null KBM7 cells were cultured for 1 hour in presence of 50 μM 3-BrPA before metabolite extraction. Then, cells were rapidly washed three times with cold PBS, and then metabolites were extracted by addition of 80% ice-cold methanol followed after incubation on dry ice for 15 min. Endogenous metabolite profiles were obtained using LC-MS as described^51. Metabolite levels (n=3) were normalized to cell number.

MCT1-null cells = experiment: 14C-3-BrPA uptake assay, MCT1-null KBM7 cells; type: cell-based, human; conditions: MCT1-null compared to parental KBM7 cells
Method: Wild type KBM7 or MCT1-null cells were seeded in HBSS and exposed for up to 20 minutes to 100 μM ^14C-labeled 3-BrPA (6.8 mCi/mmole) (Moravek) with or without competitor molecules like 3-BrPA, Pyruvate, L-Lactate and D-Lactate. Cells were washed with cold HBSS, lysed in a NaOH buffer, and uptake measured using a liquid scintillation counter.

MDA-MB-231 cells = experiment: 14C-3-BrPA uptake, parental and MCT1-overexpressing MDA-MB-231 cells; type: cell-based, human; conditions: MCT1-overexpressing vs parental MDA-MB-231
[1] = test system: MDA-MB-231 cells stably expressing MCT1; experiment: Subcutaneous MDA-MB-231 xenografts in nude mice; type: in vivo; conditions: tumors with forced MCT1 expression vs untreated or GFP-expressing, 8 mg/kg, 3 weeks
Method: All animal studies and procedures were approved by the MIT Institutional Animal Care and Use Committee. 6-10 week old nude mice (Taconic) were used for generating all xenografts. In subcutaneous xenografts, mice were injected at two sites in the dorsal region, under isofluorane anesthesia with 100 μl/injection of tumor cell suspension in RPMI with 20% matrigel. 2.5 million MDA-MB-231 cells were injected. After 2 weeks, tumors were measured and mice were separated for PBS and 3-BrPA treatment (8 mg/kg). After 3 weeks, tumors were harvested, their dimensions were measured with a caliper and tumor volume estimated according to the formula: (0.5*W*L*L). Tumors were fixed in formalin for later processing.
To test if MCT1 expression can affect the sensitivity of established tumors to 3-BrPA, parental MDA-MB-231 cells, which express low levels of MCT1 (Supplemental FIG. 4), were injected subcutaneously into the left flanks of Nude mice, while MDA-MB-231 cells stably expressing MCT1 were injected into the contralateral flanks of the same animals. We allowed palpable subcutaneous tumors to form for 2 weeks before beginning 3-BrPA administration.

## O=C(O)C(=O)CBr [3-BrPA, 3-bromopyruvic acid]
KBM7 cells
  sensitivity to 3-BrPA (cell death): induce cell death accompanied by caspase-3 activation; also recorded: sensitive
MDA-MB-453 cells
  sensitivity to 3-BrPA: resistant
Parental KBM7 cells
  extracellular acidification rate (ECAR), a proxy for lactate production: substantial decrease
MCT1-null cells
  uptake of 14C-labeled 3-BrPA: did not take up
MDA-MB-231 cells
  14C-3-BrPA uptake with MCT1 expression: enhance
[1]
  tumor size after 3-BrPA treatment: significantly smaller

— US20140142180A1, “METHODS OF TREATING TUMORS HAVING ELEVATED MCT1 EXPRESSION” (Whitehead Institute for Biomedical Research, priority 2012, published 2014)
